Results as given in patent publication US4638005A, “Monoquaternized pyrazinium compounds and their use as electron carriers in photosynthetic processes” (The Coca-Cola Company, priority 1983, dated 1987).

Key:
nitrogenase [1] = target: T1, nitrogenase (Azotobacter vinelandii, UniProt P00459); assay: Chloroplast-coupled evolution of hydrogen by nitrogenase in the absence of substrate; type: biochemical; details: Table II, hydrogen evolution; for ACTIVITY (nmoles H2 /mg protein/min): no nitrogen or acetylene, synthetic carriers 2 mM, ferredoxin 0.2 mM
T1 construct: the nitrogenase sample was prepared from a culture of Azotobacter vinelandii; endogenous in cells; host or cells: Azotobacter vinelandii culture; French press lysate, 10,000 x g supernatant (crude)
Procedure: (§1) For the bioassay, the nitrogenase sample was prepared from a culture of Azotobacter vinelandii grown to a cell density of about 1 g/l. The cells harvested by centrifugation were broken in a French press, cell debris spun off at 10,000 XG for 1 hr., and the supernatant containing 40 mg/ml protein was used in the bioassay experiments. […] chloroplasts from spinach leaves as described by Benemann were also used. The synthetic carriers were tested in aqueous solutions at concentrations of 2 mM, while the standard, clostridial ferredoxin, was used in 0.2 mM aqueous solution. The concentrations of carriers in the assay mixtures were chosen so as to guarantee carrier saturation conditions. Thus, the observed differences in rates of ethylene production from the substrate acetylene were assigned directly to variations in the efficiency of electron transfer from the illuminated chloroplast to the nitrogenase. The results obtained for acetylene reduction (nitrogen fixation) using the pyrazinium compounds of Examples 1 through 42 are summarized in Table I and are expressed as nmoles of ethylene produced per mg protein per minute.
It has been recognized for sometime the connection existing between hydrogen metabolism and nitrogen fixation. […] When nitrogenase was purified extensively, as mentioned above, it became apparent that in addition to nitrogen, nitrogenase also catalyzed the reduction of protons. The evolution of hydrogen is particularly active in the absence of the normal substrates for nitrogenase (nitrogen, acetylene, cyanide, azide, etc.), and is dependent upon a strong reductant and adenosine triphosphate hydrolysis. Since hydrogen evolution is not inhibited by CO, but reduction of nitrogen and other substrates is, the reduction of protons presumably occurs at a site other than the site of nitrogen reduction, H. C. Winter, et. al., Ann Rev. Biochem, 45, 409 (1976). Accordingly, with the same bioassay system and with exclusion of nitrogen, and acetylene, the activity of the pyrazinium compounds to act as carriers for production of hydrogen has been determined.
The results of this study, which are summarized in Table II, indicate that the pyrazinium salts that mediate the reduction of acetylene with electrons from the photoexcited chloroplast, are also mediating the reduction of protons by the nitrogenase.

[2] = Polarographic half-wave potential (first wave reduction); type: physicochemical; details: 0.1 M phosphate buffer pH 7.55, 25° C.
Description: Sci., 65, 1471(1976). Therefore, it was of interest to measure polarographically the half-wave potentials of the several pyrazinium salts under consideration, to determine the possible effect of structure upon their redox potentials.

nitrogenase [3] = target: T1, nitrogenase; assay: Chloroplast-coupled reduction of acetylene to ethylene by nitrogenase (electron carrier bioassay of Benemann); type: biochemical; details: for ACTIVITY RELATIVE TO FERREDOXIN (%) / ACTIVITY (nmoles C2 H4 /mg protein/min): Table I; for ACTIVITY RELATIVE TO FERREDOXIN (%): acetylene reduction to ethylene; for ACTIVITY (nmoles C2 H4 /mg protein/min): illuminated spinach chloroplasts, synthetic carriers 2 mM, clostridial ferredoxin 0.2 mM; for ETHYLENE FORMATION % Ferredoxin Activity: Table III ranking; for % FERREDOXIN ACTIVITY: Table IV, acetylene reduction
Procedure: The activity of the pyrazinium compounds as electron carriers in an illuminated photocouple process using isolated chloroplasts and the reductive enzyme catalyst nitrogenease has been determined using the bioassay of Benemann, et al., Proc. Natl. Acad. Sci. USA, 64, 1079(1969). In this method, the carrier activity is measured as a function of nitrogenase reduction of acetylene to ethylene, the rate of production of ethylene being the direct measurement.
as §1

T1 sequence (P00459 2-290 limits assumed): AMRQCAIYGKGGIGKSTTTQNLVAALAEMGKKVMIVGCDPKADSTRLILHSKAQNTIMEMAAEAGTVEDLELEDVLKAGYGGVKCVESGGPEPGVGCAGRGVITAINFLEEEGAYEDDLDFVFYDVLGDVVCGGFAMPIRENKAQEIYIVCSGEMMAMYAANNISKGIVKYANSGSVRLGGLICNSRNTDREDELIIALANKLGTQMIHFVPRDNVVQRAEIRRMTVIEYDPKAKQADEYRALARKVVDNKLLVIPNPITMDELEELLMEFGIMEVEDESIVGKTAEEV

Row | Molecule | ACTIVITY RELATIVE TO FERREDOXIN (%) (nitrogenase [1]) | ACTIVITY (nmoles H2 /mg protein/min) (nitrogenase [1]) | E1/2 vs. SCE (mV) [2] [mV] | ACTIVITY RELATIVE TO FERREDOXIN (%) (nitrogenase [3]) | ACTIVITY (nmoles C2 H4 /mg protein/min) (nitrogenase [3]) | ETHYLENE FORMATION % Ferredoxin Activity (nitrogenase [3]) [%] | % FERREDOXIN ACTIVITY (nitrogenase [3]) [%]
1 | CC(O)c1c[n+](C)ccn1 (centres unmarked) [Compound 200, 1-Methyl-3-(1-hydroxyelhyl)pyrazinium iodide] | 64 | 17.2 | -699 | 17 | 2.3 nmoles C2 H4 /mg protein/min | 17 | 17
2 | CCC(Cc1c[n+](C)ccn1)S(=O)(=O)[O-] (centres unmarked) [Compound 1000] | 73 | 19.5 | -710 | 95 | 12.8 nmoles C2 H4 /mg protein/min | 95 | 95
3 | 1-Methyl-3(2)-hydroxymethyl-6(5)-methylpyrazinium iodide [Compound 500] | 46 | 12.3 | -751 | 22 | 3.0 nmoles C2 H4 /mg protein/min | 22 | 22
4 | C[n+]1ccnc(CC(C(O)CO)S(=O)(=O)[O-])c1 (centres unmarked) [Compound 4100] | 73 | 19.4 | -720 | 110 | 14.8 nmoles C2 H4 /mg protein/min | 110 | 110
5 | C[n+]1ccnc2ccccc21 [Compound 5200] | 0 | 0.0 | -433 | 0 | 0.0 nmoles C2 H4 /mg protein/min | 0 | 0
6 | C[n+]1ccnc(CS(C)(=O)=O)c1 [Compound 4700] | 5 | 1.4 | -611 | 5 | 0.7 nmoles C2 H4 /mg protein/min | 5 | 5
7 | C[n+]1ccnc(S(=O)(=O)[O-])c1 [Compound 2000] | 100 | 26.6 | -573 | 61 | 8.3 nmoles C2 H4 /mg protein/min | 61 | 61
8 | CCCCc1c[n+](C)ccn1 [Compound 5000] | 0 | 0.0 | -676 | 0 | 0.0 nmoles C2 H4 /mg protein/min | 0 | 0
9 | Cc1c[n+](CCCS(=O)(=O)[O-])c(C)cn1 [Compound 700, 1-(3-Sulfonylpropyl)-2,5-dimethylpyrazine] | 74 | 19.7 | -700 | 104 | 14.0 nmoles C2 H4 /mg protein/min | 104 | 104
10 | CC(c1c[n+](C)ccn1)S(=O)(=O)[O-] (centres unmarked) [Compound 2400] | 128 | 34.1 | -701 | 105 | 14.2 nmoles C2 H4 /mg protein/min | 105 | 105
11 | C[n+]1ccnc(CS(=O)(=O)[O-])c1 [Compound 2800] | 140 | 37.3 | -690 | 61 | 8.3 nmoles C2 H4 /mg protein/min | 61 | 61
12 | C[n+]1ccnc(CCC(N)=O)c1 [Compound 4000, 1-Methyl-3-(2-carboxamidoethyl)pyrazinium iodide] | 36 | 9.5 | -685 | 28 | 3.8 nmoles C2 H4 /mg protein/min | 28 | 28
13 | C[n+]1ccnc(CCO)c1.[I-] [Compound 300, 1-Methyl-3-(2-hydroxyethyl)pyrazinium iodide] | 30 | 8.1 | -683 | 41 | 5.5 nmoles C2 H4 /mg protein/min | 41 | 41
14 | CCCC(c1c[n+](C)ccn1)S(=O)(=O)[O-] (centres unmarked) [Compound 1200] | 143 | 38.1 | -699 | 107 | 14.5 nmoles C2 H4 /mg protein/min | 107 | 107
